Laboratory results reported in ChEMBL document CHEMBL2321725, “Optimization of non-ATP competitive CDK/cyclin groove inhibitors through REPLACE-mediated fragment assembly” (J Med Chem, 2013).
Peptide text beside a SMILES is read from it. * marks the point of attachment. X14 = Cc1nc(C(=O)*)nn1-c1cc(Cl)cc(Cl)c1; X17 = Cc1cc(C(=O)*)nn1-c1cc(Cl)cc(Cl)c1; X18 = O=C(c1ccc(-c2cc(Cl)cc(Cl)c2)o1)*; X9 = O=C(c1ccn(-c2cc(Cl)cc(Cl)c2)c1)*; X13 = O=C(c1c[nH]c(-c2cccc(F)c2)n1)*; X11 = Cc1cc(C(=O)*)nn1-c1ccc(Cl)cc1; X12 = Cc1nc(C(=O)*)nn1-c1ccc(Cl)cc1; X16 = Cc1nc(C(=O)*)nn1-c1cccc(Cl)c1; X15 = O=C(c1ccn(-c2ccc(Cl)cc2)c1)*; X2 = Cc1cc(C(=O)*)nn1-c1cccc(Cl)c1; X3 = COc1ccc(-n2nc(C(=O)*)cc2C)cc1; X6 = COc1cccc(-n2nc(C(=O)*)cc2C)c1; X1 = Cc1cccc(-n2nc(C(=O)*)nc2C)c1; X4 = O=C(c1ccc(-c2cccc(Cl)c2)o1)*; X5 = O=C(c1csc(-c2ccc(Cl)cc2)n1)*; X7 = Cc1cc(C(=O)*)nn1-c1cccc(F)c1; X10 = Cc1cc(C(=O)*)nn1-c1ccccc1; X8 = Cn1cc(C(=O)*)nc1-c1ccccc1

Columns and labels:
[1] = target: Cyclin-dependent kinase 4/cyclin D1 (Homo sapiens, UniProt P11802); experiment: Inhibition of human recombinant CDK4/Cyclin D1 using fluoresceinyl-Ahx-Pro-Val-Lys-Arg-Arg-Leu-(3ClPhe)-Gly tracer peptide as substrate after 45 mins by fluorescent polarization binding assay
[2] = target: Cyclin-dependent kinase 2/cyclin A (Homo sapiens, UniProt P24941); experiment: Inhibition of human recombinant CDK2/Cyclin A2 using fluoresceinyl-Ahx-Pro-Val-Lys-Arg-Arg-Leu-Phe-Gly tracer peptide as substrate after 45 mins by fluorescent polarization binding assay; format: protein-complex assay

Chain of Cyclin-dependent kinase 4/cyclin D1 (P11802 whole entry): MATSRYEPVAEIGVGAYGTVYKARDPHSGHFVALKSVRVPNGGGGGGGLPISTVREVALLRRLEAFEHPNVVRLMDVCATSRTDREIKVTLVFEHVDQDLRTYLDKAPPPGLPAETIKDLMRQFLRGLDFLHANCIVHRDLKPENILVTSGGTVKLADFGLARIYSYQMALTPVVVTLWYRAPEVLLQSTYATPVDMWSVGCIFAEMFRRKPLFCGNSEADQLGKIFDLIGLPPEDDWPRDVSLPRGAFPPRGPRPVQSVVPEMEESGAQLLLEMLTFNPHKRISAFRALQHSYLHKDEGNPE
Chain of Cyclin-dependent kinase 4/cyclin D1 (P24385 whole entry, further chain): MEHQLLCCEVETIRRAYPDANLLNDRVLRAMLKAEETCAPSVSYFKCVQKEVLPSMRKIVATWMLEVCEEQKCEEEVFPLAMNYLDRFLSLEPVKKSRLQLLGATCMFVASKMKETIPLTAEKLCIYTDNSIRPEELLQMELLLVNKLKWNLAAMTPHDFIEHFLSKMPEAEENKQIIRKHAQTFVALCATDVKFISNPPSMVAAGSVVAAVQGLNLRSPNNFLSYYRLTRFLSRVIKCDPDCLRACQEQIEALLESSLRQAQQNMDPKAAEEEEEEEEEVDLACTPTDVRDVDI

Structure (SMILES)	IC50 [1]	IC50 [2]
Cc1nc(C(=O)N[C@@H](CCCNC(=N)N)C(=O)N[C@@H](CC(C)C)C(=O)NCc2cccc(Oc3cc(Cl)cc(Cl)c3)c2)nn1-c1cc(Cl)cc(Cl)c1	120 µM	> 180 µM
CC[C@H](C)[C@H](NC(=O)[C@H](CC(C)C)NC(=O)[C@H](CCCNC(=N)N)NC(=O)c1cc(C)n(-c2cccc(Cl)c2)n1)C(=O)N[C@@H](Cc1ccccc1)C(N)=O (X2-RLIF-NH2)	70.3 µM	11.9 µM
Cc1nc(C(=O)N[C@@H](CCCNC(=N)N)C(=O)N[C@@H](CC(C)C)C(=O)NCc2cc(Oc3ccc(F)c(F)c3)ccn2)nn1-c1cc(Cl)cc(Cl)c1	> 180 µM	> 180 µM
CC[C@H](C)[C@H](NC(=O)[C@H](CC(C)C)NC(=O)[C@H](CCCNC(=N)N)NC(=O)c1nc(C)n(-c2cccc(Cl)c2)n1)C(=O)N[C@@H](Cc1ccccc1)C(N)=O (X16-RLIF-NH2)	26.5 µM	5.7 µM
CC[C@H](C)[C@H](NC(=O)[C@H](CC(C)C)NC(=O)[C@H](CCCNC(=N)N)NC(=O)c1c[nH]c(-c2cccc(F)c2)n1)C(=O)N[C@@H](Cc1ccccc1)C(N)=O (X13-RLIF-NH2)	68.5 µM	34.3 µM
CC[C@H](C)[C@H](NC(=O)[C@H](CC(C)C)NC(=O)[C@H](CCCNC(=N)N)NC(=O)c1nc(C)n(-c2cc(Cl)cc(Cl)c2)n1)C(=O)N[C@@H](Cc1ccccc1)C(N)=O (X14-RLIF-NH2)	27.3 µM	4 µM
CC[C@H](C)[C@H](NC(=O)[C@H](CC(C)C)NC(=O)[C@H](CCCNC(=N)N)NC(=O)c1cc(C)n(-c2ccc(OC)cc2)n1)C(=O)N[C@@H](Cc1ccccc1)C(N)=O (X3-RLIF-NH2)	> 180 µM	> 180 µM
CC[C@H](C)[C@H](NC(=O)[C@H](CC(C)C)NC(=O)[C@H](CCCNC(=N)N)NC(=O)c1cc(C)n(-c2cc(Cl)cc(Cl)c2)n1)C(=O)N[C@@H](Cc1ccccc1)C(N)=O (X17-RLIF-NH2)	> 100 µM	21.8 µM
CC[C@H](C)[C@H](NC(=O)[C@H](CC(C)C)NC(=O)[C@H](CCCNC(=N)N)NC(=O)c1ccn(-c2ccc(Cl)cc2)c1)C(=O)N[C@@H](Cc1ccccc1)C(N)=O (X15-RLIF-NH2)	> 180 µM	> 180 µM
Cc1ccccc1Oc1ccnc(CNC(=O)[C@H](CC(C)C)NC(=O)[C@H](CCCNC(=N)N)NC(=O)c2nc(C)n(-c3ccc(Cl)cc3)n2)c1	> 500 µM	60 µM
CC[C@H](C)[C@H](NC(=O)[C@H](CC(C)C)NC(=O)[C@H](CCCNC(=N)N)NC(=O)c1cc(C)n(-c2cccc(OC)c2)n1)C(=O)N[C@@H](Cc1ccccc1)C(N)=O (X6-RLIF-NH2)	> 100 µM	64.1 µM
Cc1nc(C(=O)N[C@@H](CCCNC(=N)N)C(=O)N[C@@H](CC(C)C)C(=O)NCc2cc(Oc3cccc(F)c3)ccn2)nn1-c1ccc(Cl)cc1	> 200 µM	53.2 µM
CC[C@H](C)[C@H](NC(=O)[C@H](CC(C)C)NC(=O)[C@H](CCCNC(=N)N)NC(=O)c1cc(C)n(-c2ccccc2)n1)C(=O)N[C@@H](Cc1ccccc1)C(N)=O (X10-RLIF-NH2)	54.2 µM	40.3 µM
CC[C@H](C)[C@H](NC(=O)[C@H](CC(C)C)NC(=O)[C@H](CCCNC(=N)N)NC(=O)c1nc(C)n(-c2ccc(Cl)cc2)n1)C(=O)N[C@@H](Cc1ccccc1)C(N)=O (X12-RLIF-NH2)	12 µM	11.5 µM
Cc1nc(C(=O)N[C@@H](CCCNC(=N)N)C(=O)N[C@@H](CC(C)C)C(=O)NCc2cc(Oc3ccc(Cl)cc3)ccn2)nn1-c1ccc(Cl)cc1	> 500 µM	54.4 µM
Cc1nc(C(=O)N[C@@H](CCCNC(=N)N)C(=O)N[C@@H](CC(C)C)C(=O)NCc2cc(Oc3ccc(F)cc3)ccn2)nn1-c1ccc(Cl)cc1	> 200 µM	18.1 µM
CC[C@H](C)[C@H](NC(=O)[C@H](CC(C)C)NC(=O)[C@H](CCCNC(=N)N)NC(=O)c1cn(C)c(-c2ccccc2)n1)C(=O)N[C@@H](Cc1ccccc1)C(N)=O (X8-RLIF-NH2)	> 180 µM	> 180 µM
CC[C@H](C)[C@H](NC(=O)[C@H](CC(C)C)NC(=O)[C@H](CCCNC(=N)N)NC(=O)c1csc(-c2ccc(Cl)cc2)n1)C(=O)N[C@@H](Cc1ccccc1)C(N)=O (X5-RLIF-NH2)	> 180 µM	> 180 µM
CC[C@H](C)[C@H](NC(=O)[C@H](CC(C)C)NC(=O)[C@H](CCCNC(=N)N)NC(=O)c1ccn(-c2cc(Cl)cc(Cl)c2)c1)C(=O)N[C@@H](Cc1ccccc1)C(N)=O (X9-RLIF-NH2)	> 180 µM	> 180 µM
Cc1nc(C(=O)N[C@@H](CCCNC(=N)N)C(=O)N[C@@H](CC(C)C)C(=O)NCc2cccc(Oc3ccccc3)c2)nn1-c1ccc(Cl)cc1	> 200 µM	106 µM
CC[C@H](C)[C@H](NC(=O)[C@H](CC(C)C)NC(=O)[C@H](CCCNC(=N)N)NC(=O)c1nc(C)n(-c2cccc(C)c2)n1)C(=O)N[C@@H](Cc1ccccc1)C(N)=O (X1-RLIF-NH2)	51.1 µM	13.8 µM
CC[C@H](C)[C@H](NC(=O)[C@H](CC(C)C)NC(=O)[C@H](CCCNC(=N)N)NC(=O)c1ccc(-c2cccc(Cl)c2)o1)C(=O)N[C@@H](Cc1ccccc1)C(N)=O (X4-RLIF-NH2)	> 180 µM	> 180 µM
CC[C@H](C)[C@H](NC(=O)[C@H](CC(C)C)NC(=O)[C@H](CCCNC(=N)N)NC(=O)c1cc(C)n(-c2ccc(Cl)cc2)n1)C(=O)N[C@@H](Cc1ccccc1)C(N)=O (X11-RLIF-NH2)	54.7 µM	33.7 µM
Cc1nc(C(=O)N[C@@H](CCCNC(=N)N)C(=O)N[C@@H](CC(C)C)C(=O)NCc2cc(Oc3cccc(Cl)c3)ccn2)nn1-c1cc(Cl)cc(Cl)c1	120 µM	61 µM
CC[C@H](C)[C@H](NC(=O)[C@H](CC(C)C)NC(=O)[C@H](CCCNC(=N)N)NC(=O)c1ccc(-c2cc(Cl)cc(Cl)c2)o1)C(=O)N[C@@H](Cc1ccccc1)C(N)=O (X18-RLIF-NH2)	> 180 µM	> 180 µM
CC[C@H](C)[C@H](NC(=O)[C@H](CC(C)C)NC(=O)[C@H](CCCNC(=N)N)NC(=O)c1cc(C)n(-c2cccc(F)c2)n1)C(=O)N[C@@H](Cc1ccccc1)C(N)=O (X7-RLIF-NH2)	65.9 µM	29.6 µM
